Tests used:
Vasopressin V2 receptor [1] = target: T1, Vasopressin V2 receptor (Homo sapiens, UniProt P30518); test: Displacement of [3H]Arg-vasopressin from human recombinant vasopressin V2 receptor expressed in HEK293 cells at 100 nM; format: cell-based
Vasopressin V1a receptor [2] = target: T2, Vasopressin V1a receptor (Homo sapiens, UniProt P37288); test: Antagonist activity at human vasopressin V1a receptor expressed in HEK293 cells assessed as inhibition of Arg-vasopressin-induced intracellular calcium level; format: functional, cell-based
Target sequence in this assay (P37288 whole entry): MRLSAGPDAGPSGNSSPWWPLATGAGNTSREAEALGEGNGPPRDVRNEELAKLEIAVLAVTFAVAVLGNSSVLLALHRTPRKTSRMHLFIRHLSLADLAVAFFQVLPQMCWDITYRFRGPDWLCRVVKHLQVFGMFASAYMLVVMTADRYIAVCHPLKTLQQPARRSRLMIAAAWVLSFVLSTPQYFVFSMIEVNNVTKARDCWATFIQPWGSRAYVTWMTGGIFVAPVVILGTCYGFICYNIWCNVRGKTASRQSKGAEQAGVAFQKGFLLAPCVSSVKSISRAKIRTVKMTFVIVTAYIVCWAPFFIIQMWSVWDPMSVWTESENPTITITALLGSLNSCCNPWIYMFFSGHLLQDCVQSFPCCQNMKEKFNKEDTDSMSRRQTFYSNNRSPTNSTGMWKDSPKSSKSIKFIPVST

Vasopressin V2 receptor [3] = target: T1, Vasopressin V2 receptor; test: Antagonist activity at human vasopressin V2 receptor expressed in HEK293 cells assessed as inhibition of Arg-vasopressin-induced cAMP levels; format: functional, cell-based
Vasopressin V1a receptor [4] = target: T2, Vasopressin V1a receptor; test: Displacement of [3H]Arg-vasopressin from human recombinant vasopressin V1a receptor expressed in HEK293 cells; format: cell-based
Target sequence in this assay (P37288 whole entry): as above

Vasopressin V2 receptor [5] = target: T1, Vasopressin V2 receptor; test: Displacement of [3H]Arg-vasopressin from human recombinant vasopressin V2 receptor expressed in HEK293 cells; format: cell-based
Vasopressin V1a receptor [6] = target: T2, Vasopressin V1a receptor; test: Displacement of [3H]Arg-vasopressin from human recombinant vasopressin V1a receptor expressed in HEK293 cells at 100 nM; format: cell-based
Target sequence in this assay (P37288 whole entry, looked up): as the sequence (P37288 whole entry) above

Rattus norvegicus [7] = test: Aquaretic effect in hydrated conscious rat assessed as reduction of urine osmolality at 30 mg/kg, po relative to control; format: functional; design: scale not given: the % may be the effect or the level left
Canis familiaris [8] = test: Aquaretic effect in Beagle dog assessed as increase in urine volume at 30 mg/kg, po relative to control; format: functional, Canis lupus familiaris
Canis familiaris [9] = test: Aquaretic effect in Beagle dog assessed as reduction of urine osmolality at 30 mg/kg, po relative to control; format: functional, Canis lupus familiaris; design: scale not given: the % may be the effect or the level left
Rattus norvegicus [10] = test: Reversal of Arg-vasopressin-induced hypertension in iv dosed Long-Evans rat assessed as reduction of blood pressure; format: functional
[11] = Aqueous solubility at pH 7.4; format: physicochemical
Vasopressin V1a receptor [12] = target: Vasopressin V1a receptor (Rattus norvegicus, UniProt P30560); test: Antagonist activity at rat vasopressin V1a receptor expressed in HEK293 cells assessed as inhibition of Arg-vasopressin-induced intracellular calcium level; format: functional, cell-based
Vasopressin V2 receptor [13] = target: Vasopressin V2 receptor (Rattus norvegicus, UniProt Q00788); test: Antagonist activity at rat vasopressin V2 receptor expressed in HEK293 cells assessed as inhibition of Arg-vasopressin-induced cAMP levels; format: functional, cell-based
[14] = Oral bioavailability in rat; format: ADME, organism-based; conditions: in vivo
[15] = Oral bioavailability in dog; format: ADME, organism-based, Canis lupus familiaris; conditions: in vivo
[16] = Oral bioavailability in cynomolgus monkey; format: ADME, organism-based, Macaca fascicularis; conditions: in vivo
[17] = Half life in rat plasma; format: ADME, organism-based
[18] = Half life in dog plasma; format: ADME, organism-based, Canis lupus familiaris
[19] = Half life in cynomolgus monkey plasma; format: ADME, organism-based, Macaca fascicularis
Rattus norvegicus [20] = test: Aquaretic effect in hydrated conscious rat assessed as increase in urine volume at 1 mg/kg, po relative to control; format: functional
Rattus norvegicus [21] = test: Aquaretic effect in hydrated conscious rat assessed as reduction of urine osmolality at 1 mg/kg, po relative to control; format: functional; design: scale not given: the % may be the effect or the level left
Rattus norvegicus [22] = test: Aquaretic effect in hydrated conscious rat assessed as increase in urine volume at 3 mg/kg, po relative to control; format: functional
Rattus norvegicus [23] = test: Aquaretic effect in hydrated conscious rat assessed as reduction of urine osmolality at 3 mg/kg, po relative to control; format: functional; design: scale not given: the % may be the effect or the level left
Rattus norvegicus [24] = test: Aquaretic effect in hydrated conscious rat assessed as increase in urine volume at 10 mg/kg, po relative to control; format: functional
Rattus norvegicus [25] = test: Aquaretic effect in hydrated conscious rat assessed as reduction of urine osmolality at 10 mg/kg, po relative to control; format: functional; design: scale not given: the % may be the effect or the level left
Rattus norvegicus [26] = test: Aquaretic effect in hydrated conscious rat assessed as increase in urine volume at 30 mg/kg, po relative to control; format: functional

T1 sequence (P30518 whole entry): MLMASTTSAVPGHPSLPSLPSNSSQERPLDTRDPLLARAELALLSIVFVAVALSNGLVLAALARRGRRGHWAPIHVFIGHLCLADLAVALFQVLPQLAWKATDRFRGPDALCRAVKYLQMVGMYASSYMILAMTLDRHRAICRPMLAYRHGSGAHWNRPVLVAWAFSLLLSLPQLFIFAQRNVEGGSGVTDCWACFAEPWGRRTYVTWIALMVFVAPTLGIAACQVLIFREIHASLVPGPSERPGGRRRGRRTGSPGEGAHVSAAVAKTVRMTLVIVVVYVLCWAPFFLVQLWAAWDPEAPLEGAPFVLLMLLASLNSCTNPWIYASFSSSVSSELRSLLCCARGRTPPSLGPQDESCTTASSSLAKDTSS
Vasopressin V1a receptor (Rattus norvegicus, UniProt P30560), sequence (P30560 whole entry): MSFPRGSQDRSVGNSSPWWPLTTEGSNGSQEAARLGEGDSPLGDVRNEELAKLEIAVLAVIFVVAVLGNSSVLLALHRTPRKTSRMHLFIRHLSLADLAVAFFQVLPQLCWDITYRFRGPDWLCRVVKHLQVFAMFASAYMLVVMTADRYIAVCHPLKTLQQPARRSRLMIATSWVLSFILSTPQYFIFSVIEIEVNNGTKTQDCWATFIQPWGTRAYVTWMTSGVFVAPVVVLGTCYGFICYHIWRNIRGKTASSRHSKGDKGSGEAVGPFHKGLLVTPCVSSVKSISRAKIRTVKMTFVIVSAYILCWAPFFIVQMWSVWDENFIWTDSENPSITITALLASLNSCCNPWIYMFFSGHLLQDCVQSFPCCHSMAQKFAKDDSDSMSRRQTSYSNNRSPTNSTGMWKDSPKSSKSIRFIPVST
Vasopressin V2 receptor (Rattus norvegicus, UniProt Q00788), sequence (Q00788 whole entry): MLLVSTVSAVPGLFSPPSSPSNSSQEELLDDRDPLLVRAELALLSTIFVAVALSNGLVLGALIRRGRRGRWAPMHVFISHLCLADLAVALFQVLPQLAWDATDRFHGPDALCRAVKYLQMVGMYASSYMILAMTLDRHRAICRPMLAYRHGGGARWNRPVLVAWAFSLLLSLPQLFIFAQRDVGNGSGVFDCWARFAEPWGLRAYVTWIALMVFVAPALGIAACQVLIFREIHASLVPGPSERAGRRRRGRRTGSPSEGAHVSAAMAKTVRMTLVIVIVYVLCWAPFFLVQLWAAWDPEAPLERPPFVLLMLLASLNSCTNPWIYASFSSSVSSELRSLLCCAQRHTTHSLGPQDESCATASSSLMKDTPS

Row | SMILES | Activity (Vasopressin V2 receptor [1]) [%] | IC50 (Vasopressin V1a receptor [2]) [nM] | IC50 (Vasopressin V2 receptor [3]) [nM] | IC50 (Vasopressin V1a receptor [4]) [nM] | IC50 (Vasopressin V2 receptor [5]) [nM] | other results
1 | COC(=O)C1=CC2(CC1)CCN(C(=O)c1ccc(NC(=O)c3ccccc3F)cc1)c1ccccc1C2 (stereo not given) | 23 | 130 | > 10000 |  |  | 
2 | O=C(O)C1=CC2(CC1)CCN(C(=O)c1ccc(NC(=O)c3cc(F)ccc3Cl)cc1)c1ccccc1C2 (stereo not given) |  | 780 | 410 | 32 | 76 | 
3 | COc1cc(C(=O)N2CC[C@]3(C=C(C(=O)O)CC3)Cc3ccccc32)ccc1NC(=O)c1cc(F)ccc1Cl |  |  |  |  | 34 | Activity (Rattus norvegicus [7]): 83%; Activity (Canis familiaris [8]): 1130%; Activity (Canis familiaris [9]): -78%; ED50 (Rattus norvegicus [10]): 0.644 mg/kg; solubility [11]: > 1000 µg/mL; IC50 (Vasopressin V1a receptor [12]): 640 nM; IC50 (Vasopressin V2 receptor [13]): 30 nM; bioavailability [14]: 68%; bioavailability [15]: 45%; bioavailability [16]: 23%; half-life [17]: 8.7 h; half-life [18]: 5.1 h; half-life [19]: 10.9 h; Activity (Rattus norvegicus [20]): 130%; Activity (Rattus norvegicus [21]): 87%; Activity (Rattus norvegicus [22]): 165%; Activity (Rattus norvegicus [23]): 48%; Activity (Rattus norvegicus [24]): 310%; Activity (Rattus norvegicus [25]): 52%; Activity (Rattus norvegicus [26]): 690%
4 | COc1cc(NC(=O)c2cc(F)ccc2C)ccc1C(=O)N1CCC2(C=C(C(=O)O)CC2)Cc2ccccc21 (stereo not given) |  | 11600 | 140 |  |  | Activity (Vasopressin V1a receptor [6]): 15%
5 | O=C(Nc1ccc(C(=O)N2CCC3(C=C(CO)CC3)Cc3ccccc32)cc1)c1ccccc1-c1ccccc1 (stereo not given) |  | 9 | 190 |  |  | 
6 | CNCC1=CC2(CC1)CCN(C(=O)c1ccc(NC(=O)c3ccccc3-c3ccccc3)cc1)c1ccccc1C2 (stereo not given) |  | 630 | 1800 | 18 | 44 | 
7 | COC(=O)C1=CC2(CC1)CCN(C(=O)c1ccc(NC(=O)c3cc(F)ccc3Cl)cc1)c1ccccc1C2 (stereo not given) |  | 190 | > 10000 | 40 | > 200 | 
8 | CNCC1=CC2(CC1)CCN(C(=O)c1ccc(NC(=O)c3cc(F)ccc3C)cc1Cl)c1ccccc1C2 (stereo not given) | 17 |  |  |  |  | Activity (Vasopressin V1a receptor [6]): 0%
9 | O=C(O)C1=CC2(CC1)CCN(C(=O)c1ccc(NC(=O)c3ccccc3F)cc1)c1ccccc1C2 (stereo not given) | 15 |  |  | 100 |  | 

More lines, main results first:

Row | Activity (Vasopressin V2 receptor [1]) [%] | IC50 (Vasopressin V1a receptor [2]) [nM] | IC50 (Vasopressin V2 receptor [3]) [nM] | IC50 (Vasopressin V1a receptor [4]) [nM] | IC50 (Vasopressin V2 receptor [5]) [nM] | SMILES | other results
10 | 67 |  |  |  |  | Cc1ccc(F)cc1C(=O)Nc1ccc(C(=O)N2CCC3(C=C(C(=O)O)CC3)Cc3ccccc32)c(Cl)c1 (stereo not given) | Activity (Vasopressin V1a receptor [6]): 10%
11 |  | > 5000 |  |  |  | Cc1ccc(F)cc1C(=O)Nc1ccc(C(=O)N2Cc3cccn3Cc3ccccc32)c(Cl)c1 [LIXIVAPTAN] | 
12 |  |  | 360 |  |  | O=C(O)C1=CC2(CC1)CCN(C(=O)c1ccc(NC(=O)c3ccccc3-c3ccccc3)cc1)c1ccccc1C2 (stereo not given) | 
13 |  | 45 | 36 | 2 | 8 | CN(C)CCNC(=O)C1=C[C@@]2(CC1)CCN(C(=O)c1ccc(NC(=O)c3ccccc3-c3ccccc3)cc1)c1ccccc1C2 | 
14 | 66 |  |  | 100 |  | Cc1ccc(F)cc1C(=O)Nc1ccc(C(=O)N2CCC3(C=C(CO)CC3)Cc3ccccc32)c(Cl)c1 (stereo not given) | 
15 |  | 89 | 120 | 19 | 92 | COc1cc(C(=O)N2CCC3(C=C(C(=O)O)CC3)Cc3ccccc32)ccc1NC(=O)c1cc(F)ccc1Cl (stereo not given) | 
16 |  |  | 1050 |  |  | COc1cc(C(=O)N2CC[C@]3(C=C(C4=NCCN4)CC3)Cc3ccccc32)ccc1NC(=O)c1cc(F)ccc1Cl | 
